This is an account of results in patent US8980879B2 (AbbVie Inc., priority 2013, dated 2015).

The target of test [1] is T1, BRD4 (BDII_E352-M457) (Homo sapiens, UniProt O60885).
T1 construct: protocol; made in house
As to the kind of experiment: TR-FRET bromodomain binding assay, BRD4 second bromodomain. As to the method:
(§1) A time-resolved fluorescence resonance energy transfer (TR-FRET) assay was used to determine the affinities of compounds of the Examples listed in Table 1 for each bromodomain of BRD4. His-tagged first (BD1: amino acids K57-E168) and second (BD2: amino acids E352-E168) bromodomains of BRD4 were expressed and purified. An Alexa647-labeled BET-inhibitor was used as the fluorescent probe in the assay.
(§2) Compound dilution series were prepared in DMSO via an approximately 3-fold serial dilution from one of the following:
(§3) Assay method D: 500 μM-8.5 nM
(§4) Assay method E: 0.47 mM to 7.8 nM
(§5) Assay method F: 250 μM-4.2 nM
(§6) Assay method G: 0.047 mM to 0.78 nM
(§7) or 5-fold serial dilution from one of the following:
(§8) Assay method A: 2.5 mM-800 nM
(§9) Assay method B: 2.5 mM-797 nM
(§10) For Assay methods A, C, D, and F: Compounds were then diluted 6:100 in assay buffer (20 mM Sodium Phosphate, pH 6.0, 50 mM NaCl, 1 mM Ethylenediaminetetraacetic acid, 0.01% Triton X-100, 1 mM DL-Dithiothreitol) to yield 3× working solutions. Six microliters (μL) of the working solution was then transferred to white, low-volume assay plates (Costar #3673). A 1.5× assay mixture containing His-tagged bromodomain, Europium-conjugated anti-His antibody (Invitrogen PV5596) and the Alexa-647-conjugated probe molecule was also prepared. Twelve μL of this solution were added to the assay plate to reach a final volume of 18 μL.
(§11) For Assay methods B, E, and G: Compound dilutions were added directly into white, low-volume assay plates (Perkin Elmer Proxiplate 384 Plus#6008280) using a Labcyte Echo in conjunction with Labcyte Access and Thermo Multidrop CombinL robotics. Compounds were then suspended in eight microliters (μL) of assay buffer (20 mM Sodium Phosphate, pH 6.0, 50 mM NaCl, 1 mM Ethylenediaminetetraacetic acid disodium salt dihydrate, 0.01% Triton X-100, 1 mM DL-Dithiothreitol) containing His-tagged bromodomain, Europium-conjugated anti-His antibody (Invitrogen PV5596) and Alexa-647-conjugated probe.
(§12) The final concentration of 1× assay mixture for assay methods A, B, C, D, E, F, and G contains 2% DMSO, 8 nM His-tagged bromodomain, 1 nM Europium-conjugated anti-His-tag antibody and 100 nM or 30 nM probe (for BDI or BDII, respectively) and compound concentration in the range of: 50 μM-16 nM for method A, 49.02 μM-15.63 nM for method B, 25 μM-423 pM for method C, 10 μM-169 pM for method D, 9.19 μM 150 pM for method E, 5 μM-85 pM for method F, and 0.92 μM-15 pM for method G.
(§13) After a one-hour equilibration at room temperature, TR-FRET ratios were determined using an Envision multilabel plate reader (Ex 340, Em 495/520).
(§14) TR-FRET data were normalized to the means of 24 no-compound controls (“high”) and 8 controls containing 1 μM un-labeled probe (“low”). Percent inhibition was plotted as a function of compound concentration and the data were fit with the 4 parameter logistic equation to obtain IC50s Inhibition constants (Ki) were calculated from the IC50s, probe Kd and probe concentration. Typical Z′ values were between 0.65 and 0.75. The minimum significant ratio was determined to evaluate assay reproducibility (Eastwood et al., (2006) J Biomol Screen, 11: 253-261). The MSR was determined to be 2.03 for BDI and 1.93 for BDII, and a moving MSR (last six run MSR overtime) for both BDI and BDII was typically <3.
A general note: In TR-FRET formats the signal depends on donor and acceptor labels being close together.

In test [2] the test system is breast cancer cell line MX-1. In words: MX-1 cell line proliferation assay. The test is classed as cell-based. Conditions: Homo sapiens, MX1; MX-1 cells, 3-day (72 h) proliferation, Cell Titer Glo; read-out: Cellular proliferation: EC50. The method, then:
MX-1 Cell Line Proliferation Assay
The impact of compounds of the Examples on cancer cell proliferation was determined using the breast cancer cell line MX-1 (ATCC) in a 3-day proliferation assay and the data are reported in Table 1. MX-1 cells were maintained in RPMI 1640 medium (Sigma) supplemented with 10% FBS at 37 C.° and an atmosphere of 5% CO2. For compound testing, MX-1 cells were plated in 96-well black bottom plates at a density of 5000 cells/well in 90 μL of culture media and incubated at 37° overnight to allow cell adhesion and spreading. Compound dilution series were prepared in DMSO via a 3-fold serial dilution from 3 mM to 0.1 μM. The DMSO dilution series were then diluted 1:100 in phosphate buffered saline, and 10 μL of the resulted solution were added to the appropriate wells of the MX-1 cell plate. The final compound concentrations in the wells were 3, 1, 0.3, 0.1, 0.03, 0.01, 0.003, 0.001, 0.0003 and 0.0001 μM.
Luminescence readings from the Cell Titer Glo assay were normalized to the DMSO treated cells and analyzed using the GraphPad Prism software with sigmoidal curve fitting to obtain EC50s. The minimum significant ratio (MSR) was determined to evaluate assay reproducibility (Eastwood et al., (2006) J Biomol Screen, 11: 253-261). The overall MSR was determined to be 2.1 and a moving MSR (last six run MSR overtime) has been <2.
(In ATP-based viability assays light output follows the ATP content of the culture.)

Test [3] concerns the target T2, BRD4 (BDI_K57-E168) (Homo sapiens, UniProt O60885).
T2 construct: BD1: amino acids K57-E168; made in house
As to the kind of experiment: TR-FRET bromodomain binding assay, BRD4 first bromodomain. Conditions: His-tagged BD1, 100 nM Alexa647 probe; assay protocol D or F as given per row in c1; Ki calculated from IC50. As to the method:
as §1, §2, §3, §4, §5, §6, §7, §8, §9, §10, §11, §12, §13, §14

Test [4] deals with LPS induced IL-6 production. In words: LPS (lipopolysaccharide) induced IL-6 production mouse assay. The test is classed as in vivo, mice. Conditions: CD1 female mice, 3 mg/kg oral 1 h before LPS 2.5 mg/kg ip, serum IL-6 2 h after LPS; p<0.05. The method, then:
LPS (Lipopolysaccharide) Induced IL-6 Production Mouse Assay
Compounds of the Examples listed in Table 2 were assayed for their ability to inhibit LPS (lipopolysaccharide) induced IL-6 (Interleukin-6) production in mice. Fox Chase SCID® female mice (Charles Rivers Labs, 5 per group) or CD1 female mice (5 mice per group) received an intraperitoneal challenge of lipopolysaccharide (2.5 mg/kg, L2630 E. coli 0111:B4) one hour after oral administration of compounds. Mice were euthanized 2 hours after lipopolysaccharide injection, blood was removed by cardiac puncture, and then the serum harvested from the blood samples was frozen at −80° C. On the day of the assay the serum samples were brought to room temperature and then diluted 1:20 in phosphate-buffered saline containing 2% bovine serum albumin. Interleukin-6 measurements were performed using a cytokine assay from Meso Scale Discovery (Gaithersburg, Md.) for mouse serum analysis according to the manufacturer's protocol and read on a SECTOR Imager 6000 (Meso Scale Discovery, Gaithersburg, Md.) instrument. Statistical analysis was performed using Prism software (version 5.0) incorporating Dunnett's one way ANOVA. The IL-6 mean and standard deviation of the group of vehicle treated animals were compared with the IL-6 mean and standard deviation of the group treated with drug. A p value <0.05 means that there is less than a 5% probability that the mean values in the two groups are equal.

A word on the Ki: it is a dissociation constant, usually derived from enzyme kinetics or from competition with a known ligand. The term % inhibition denotes the share of the control response that was lost under treatment. A lower % inhibition goes with little suppression. Turning to `CN1CCN(CC(=O)Nc2ccc3c(c2)-c2cn(C)c4c(=O)[nH]cc(c24)CN3c2ccc(F)cc2)CC1` [Example 36], the Ki was 23.2 nM in test [1] and 1.34 nM in test [3]. The EC50 in test [2] worked out at 16.8 nM. The “% inhibition at 3 mg/kg (LPS induced IL-6 production)” value in test [4] was 68%.
`Cn1cc2c3c(c[nH]c(=O)c31)CN(c1ccc(F)cc1)c1ccc(C(=O)NCc3cc(F)ccc3Cl)cc1-2` [Example 60]: the inhibition constant Ki was 46.1 nM in test [1] and 3.2 nM in test [3]. Moreover, the EC50 in test [2] was 75.5 nM.
In the case of `Cn1cc2c3c(c[nH]c(=O)c31)CN(c1ccc(F)cc1)c1ccc(C(=O)NCc3cnn(Cc4ccccc4)c3)cc1-2` [Example 62], the Ki in test [1] was 33.1 nM; in test [3], 1.62 nM. In addition, the EC50 in test [2] came to 65.6 nM.
Regarding `Cn1cc2c3c(c[nH]c(=O)c31)CN(c1ccc(F)cc1)c1ccc(C(=O)NCc3ccccc3)cc1-2` [Example 63], the Ki in test [1] is 22 nM; in test [3] it was 1.98 nM. Moreover, the EC50 in test [2] turned out to be 49.9 nM.
In the same order, the values of `COc1ccc(F)cc1CC(=O)Nc1ccc2c(c1)-c1cn(C)c3c(=O)[nH]cc(c13)CN2c1ccc(F)cc1` [Example 65] are 44.9 nM, 3.92 nM and 55.5 nM.
The matching figures for `Cn1cc2c3c(c[nH]c(=O)c31)CN(c1ccc(F)cc1)c1ccc(NC(=O)Cc3cc(F)ccc3[N+](=O)[O-])cc1-2` [Example 66]: 30.1 nM, 2.14 nM and 44.6 nM.
In the case of `CCS(=O)(=O)Nc1cnc2c(c1)-c1cn(C)c3c(=O)[nH]cc(c13)CN2c1ccc(F)cc1F` [Example 68], the Ki in test [1] is 1.79 nM; in test [3] it was 1.26 nM. For the same compound, the EC50 in test [2] came out at 17.5 nM.
Take `Cn1cc2c3c(c[nH]c(=O)c31)CN(c1ccc(Cl)cc1)c1ncc(N)cc1-2` [Example 69]: the Ki is 1.89 nM in test [1] and 0.78 nM in test [3]. Besides, the EC50 in test [2] came to 4.4 nM.
For the compound `CCS(=O)(=O)Nc1cnc2c(c1)-c1cn(C)c3c(=O)[nH]cc(c13)CN2c1ccc(Cl)cc1` [Example 70], the Ki was 0.708 nM in test [1] and 0.79 nM in test [3]. In addition, the EC50 in test [2] turned out to be 24.4 nM.
The matching figures for `Cn1cc2c3c(c[nH]c(=O)c31)CN(c1ccc(Cl)cc1)c1ncc(NS(C)(=O)=O)cc1-2` [Example 71]: 2.21 nM, 1.65 nM and 35.6 nM.
Turning to `CC(=O)Nc1cnc2c(c1)-c1cn(C)c3c(=O)[nH]cc(c13)CN2c1ccc(Cl)cc1` [Example 72], the Ki in test [1] is 4.41 nM; in test [3], 2.56 nM. Further, the EC50 in test [2] turned out to be 10.1 nM. Further, the “% inhibition at 3 mg/kg (LPS induced IL-6 production)” value in test [4] is 63%.
Turning to `CCS(=O)(=O)Nc1ccc2c(c1)-c1cn(C)c3c(=O)[nH]cc(c13)CN2C1CCN(C(C)=O)CC1` [Example 74], the Ki was 17 nM in test [1] and 3.61 nM in test [3]. In addition, the EC50 in test [2] was greater than 1000 nM.
As to `CC(=O)N1CCC(N2Cc3c[nH]c(=O)c4c3c(cn4C)-c3cc(NC(=O)Cc4cnc(C)s4)ccc32)CC1` [Example 75], the Ki in test [1] is 54.6 nM; in test [3], 2.54 nM. For the same compound, the EC50 in test [2] is greater than 1000 nM.
In the case of `CC(=O)N1CCC(N2Cc3c[nH]c(=O)c4c3c(cn4C)-c3cc(NC(=O)Cc4cc(F)ccc4Cl)ccc32)CC1` [Example 76], the Ki in test [1] was 17.5 nM; in test [3], 3.46 nM. The EC50 in test [2] worked out at 332 nM.
In the case of `CC(=O)Nc1ccc2c(c1)-c1cn(C)c3c(=O)[nH]cc(c13)CN2C1CCN(C(C)=O)CC1` [Example 77], the Ki in test [1] was 112 nM; in test [3], 4.6 nM. Further, the EC50 in test [2] is greater than 1000 nM.
The matching figures for `Cn1cc2c3c(c[nH]c(=O)c31)CN(c1ccc(F)cc1F)c1c-2cc(CS(C)(=O)=O)cc1C1CC1` [Example 78]: 0.85 nM, 1.29 nM and 6.28 nM.
On to `Cn1cc2c3c(c[nH]c(=O)c31)CN(C1CCN(C(=O)OC(C)(C)C)CC1)c1ccc(CS(C)(=O)=O)cc1-2` [Example 80], for which the Ki in test [1] is 14.5 nM; in test [3] it was 3.04 nM. In test [2], the EC50 came to 106 nM.
In the case of `COC(=O)N1Cc2c[nH]c(=O)c3c2c(cn3C)-c2cc(CS(C)(=O)=O)ccc21` [Example 81], the results for the Ki in test [1] and in test [3] were 11.1 nM and 4.97 nM, respectively. In test [2], the EC50 is 77.9 nM.
In the same order, the values of `CCS(=O)(=O)Nc1ccc2c(c1)-c1cn(C)c3c(=O)[nH]cc(c13)CN2c1ccccn1` [Example 82] are 1.47 nM, 0.83 nM and 4.93 nM.
